Test results published in PubChem BioAssay AID1919008 (Molecular Pharmacology Branch, DTP, NCI, 2023).
Where “and” joins values, the source holds several entries; their conditions need not be identical. Equal entries are not always repeated.

System: DMS-114 complex spheroids with HUVEC/MSC, growth % test/control
Assay: Anticancer human tumor DMS-114 cell line growth inhibition [AhR];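 note: spheroids exposed to agents for 7 days before readout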;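 for viability, T/C: 100% = DMSO vehicle control wells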
Conditions: for viability, T/C: stronger effect = lower value
Summary of the method: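 Agents were dosed in half-log steps down from roughly clinical Cmax, or from 10 microM where Cmax was unknown, alone and with AhR antagonists. Read-out: percent test/control growth of tumor spheroids containing HUVEC and MSC stromal cells.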

[1] = curve of first compound, second compound 0.1 µM
[2] = curve of first compound, second compound 0.316 µM
[3] = curve of first compound, second compound 1 µM
[4] = curve of first compound, second compound 3.16 µM
[5] = curve of first compound, second compound 10 µM
[6] = second compound 0.1 µM, first compound 0.0316 µM
[7] = second compound 0.1 µM, first compound 0.1 µM
[8] = second compound 0.1 µM, first compound 0.316 µM
[9] = second compound 0.1 µM, first compound 1 µM
[10] = second compound 0.1 µM, first compound 3.16 µM
[11] = second compound 0.1 µM, first compound 10 µM
[12] = second compound 0.316 µM, first compound 0.0316 µM
[13] = second compound 0.316 µM, first compound 0.1 µM
[14] = second compound 0.316 µM, first compound 0.316 µM
[15] = second compound 0.316 µM, first compound 1 µM
[16] = second compound 0.316 µM, first compound 3.16 µM
[17] = second compound 0.316 µM, first compound 10 µM
[18] = second compound 1 µM, first compound 0.0316 µM
[19] = second compound 1 µM, first compound 0.1 µM
[20] = second compound 1 µM, first compound 0.316 µM
[21] = second compound 1 µM, first compound 1 µM
[22] = second compound 1 µM, first compound 3.16 µM
[23] = second compound 1 µM, first compound 10 µM
[24] = second compound 3.16 µM, first compound 0.0316 µM
[25] = second compound 3.16 µM, first compound 0.1 µM
[26] = second compound 3.16 µM, first compound 0.316 µM
[27] = second compound 3.16 µM, first compound 1 µM
[28] = second compound 3.16 µM, first compound 3.16 µM
[29] = second compound 3.16 µM, first compound 10 µM
[30] = second compound 10 µM, first compound 0.0316 µM
[31] = second compound 10 µM, first compound 0.1 µM
[32] = second compound 10 µM, first compound 0.316 µM
[33] = second compound 10 µM, first compound 1 µM
[34] = second compound 10 µM, first compound 3.16 µM
[35] = second compound 10 µM, first compound 10 µM

O=C(c1cc(Cc2n[nH]c(=O)c3ccccc23)ccc1F)N1CCN(C(=O)C2CC2)CC1 + Cc1ccccc1N=Nc1ccc(NC(=O)c2ccnn2C)c(C)c1
IC50 [1]: > 10000 nM | IC50 [2]: > 10000 nM | IC50 [3]: > 10000 nM | IC50 [4]: > 10000 nM | IC50 [5]: > 10000 nM | viability, T/C [6]: 109% | viability, T/C [7]: 107% | viability, T/C [8]: 103% | viability, T/C [9]: 111% | viability, T/C [10]: 110% | viability, T/C [11]: 97.5% | viability, T/C [12]: 122% | viability, T/C [13]: 109% | viability, T/C [14]: 112% | viability, T/C [15]: 105% | viability, T/C [16]: 97.9% | viability, T/C [17]: 94.7% | viability, T/C [18]: 113% | viability, T/C [19]: 95.8% | viability, T/C [20]: 111% | viability, T/C [21]: 105% | viability, T/C [22]: 102% | viability, T/C [23]: 105% | viability, T/C [24]: 105% | viability, T/C [25]: 111% | viability, T/C [26]: 94.7% | viability, T/C [27]: 102% | viability, T/C [28]: 94.2% | viability, T/C [29]: 103% | viability, T/C [30]: 87.2% | viability, T/C [31]: 103% | viability, T/C [32]: 87.2% | viability, T/C [33]: 91.2% | viability, T/C [34]: 88.3% | viability, T/C [35]: 81%

COc1cccc2c1C(=O)c1c(O)c3c(c(O)c1C2=O)CC(O)(C(=O)CO)CC3OC1CC(N)C(O)C(C)O1 (stereo unspecified)
viability, T/C (compound 0.0316 µM): 23.9% and 68.6% and 44.3% | viability, T/C (compound 0.1 µM): 18% and 54.1% and 32.1% | viability, T/C (compound 0.316 µM): 4.97% and 18.6% and 9.53% | viability, T/C (compound 1 µM): 0.27% and 1.97% and 1.19% | viability, T/C (compound 3.16 µM): 0.18% and 0.45% and 0.38% | viability, T/C (compound 10 µM): 0.28% and 0.73% and 0.56% | IC50 (curve of compound): < 31.6 nM and 115 nM

O=C(c1cc(Cc2n[nH]c(=O)c3ccccc23)ccc1F)N1CCN(C(=O)C2CC2)CC1 + CC(CO)NC(=O)c1cc(-c2ccc(Cl)cc2)nn(-c2cnn(C)c2)c1=O
IC50 [1]: > 10000 nM | IC50 [2]: > 10000 nM | IC50 [3]: > 10000 nM | IC50 [4]: > 10000 nM | IC50 [5]: > 10000 nM | viability, T/C [6]: 119% | viability, T/C [7]: 95.6% | viability, T/C [8]: 89.2% | viability, T/C [9]: 106% | viability, T/C [10]: 94.3% | viability, T/C [11]: 63.5% | viability, T/C [12]: 96.7% | viability, T/C [13]: 96.1% | viability, T/C [14]: 95.5% | viability, T/C [15]: 94.5% | viability, T/C [16]: 90.3% | viability, T/C [17]: 68.1% | viability, T/C [18]: 108% | viability, T/C [19]: 88.9% | viability, T/C [20]: 118% | viability, T/C [21]: 107% | viability, T/C [22]: 102% | viability, T/C [23]: 61.7% | viability, T/C [24]: 99.4% | viability, T/C [25]: 105% | viability, T/C [26]: 95.7% | viability, T/C [27]: 93.3% | viability, T/C [28]: 85.6% | viability, T/C [29]: 67.3% | viability, T/C [30]: 94% | viability, T/C [31]: 95.9% | viability, T/C [32]: 87.8% | viability, T/C [33]: 86% | viability, T/C [34]: 86.2% | viability, T/C [35]: 53.1%

Nc1ncn(C2CC(O)C(CO)O2)c(=O)n1 (stereo unspecified)
viability, T/C (compound 0.00316 µM): 91.9% and 109% and 106% | viability, T/C (compound 0.01 µM): 97.6% and 110% and 95% | viability, T/C (compound 0.0316 µM): 105% and 108% and 88.3% | viability, T/C (compound 0.1 µM): 83.8% and 112% and 109% | viability, T/C (compound 0.316 µM): 66.8% and 110% and 78% | viability, T/C (compound 1 µM): 53.1% and 110% and 66.1% | IC50 (curve of compound): > 1000 nM

CCN(c1cc(-c2ccc(CN3CCOCC3)cc2)cc(C(=O)NCc2c(C)cc(C)[nH]c2=O)c1C)C1CCOCC1
viability, T/C (compound 0.00949 µM): 99.5% and 108% and 105% | viability, T/C (compound 0.03 µM): 110% and 95.2% and 118% | viability, T/C (compound 0.0949 µM): 112% and 105% and 109% | viability, T/C (compound 0.3 µM): 101% and 100% and 115% | viability, T/C (compound 0.949 µM): 73.7% and 104% and 92.1% | viability, T/C (compound 3 µM): 68.2% and 106% and 76.9% | IC50 (curve of compound): > 3000 nM

Cc1ccccc1N=Nc1ccc(NC(=O)c2ccnn2C)c(C)c1
viability, T/C (compound 0.1 µM): 99.4% [middle of 20 runs] | viability, T/C (compound 0.316 µM): 101% [middle of 20 runs] | viability, T/C (compound 1 µM): 97.6% [middle of 20 runs] | viability, T/C (compound 10 µM): 94% [middle of 20 runs] | IC50 (compound alone, run of 07/26/2022): > 10000 nM

Cn1ncnc1C1c2n[nH]c(=O)c3cc(F)cc(c23)NC1c1ccc(F)cc1 (stereo unspecified) + Cc1ccccc1N=Nc1ccc(NC(=O)c2ccnn2C)c(C)c1
IC50 [1]: > 100 nM | IC50 [2]: > 100 nM | IC50 [3]: > 100 nM | IC50 [4]: > 100 nM | IC50 [5]: > 100 nM | viability, T/C (second compound 0.1 µM, first compound 0.000316 µM): 118% | viability, T/C (second compound 0.1 µM, first compound 0.001 µM): 101% | viability, T/C (second compound 0.1 µM, first compound 0.00316 µM): 111% | viability, T/C (second compound 0.1 µM, first compound 0.01 µM): 110% | viability, T/C [6]: 120% | viability, T/C [7]: 107% | viability, T/C (second compound 0.316 µM, first compound 0.000316 µM): 104% | viability, T/C (second compound 0.316 µM, first compound 0.001 µM): 105% | viability, T/C (second compound 0.316 µM, first compound 0.00316 µM): 104% | viability, T/C (second compound 0.316 µM, first compound 0.01 µM): 113% | viability, T/C [12]: 104% | viability, T/C [13]: 112% | viability, T/C (second compound 1 µM, first compound 0.000316 µM): 103% | viability, T/C (second compound 1 µM, first compound 0.001 µM): 112% | viability, T/C (second compound 1 µM, first compound 0.00316 µM): 108% | viability, T/C (second compound 1 µM, first compound 0.01 µM): 101% | viability, T/C [18]: 111% | viability, T/C [19]: 113% | viability, T/C (second compound 3.16 µM, first compound 0.000316 µM): 96% | viability, T/C (second compound 3.16 µM, first compound 0.001 µM): 104% | viability, T/C (second compound 3.16 µM, first compound 0.00316 µM): 102% | viability, T/C (second compound 3.16 µM, first compound 0.01 µM): 111% | viability, T/C [24]: 98.3% | viability, T/C [25]: 104% | viability, T/C (second compound 10 µM, first compound 0.000316 µM): 93.5% | viability, T/C (second compound 10 µM, first compound 0.001 µM): 93.3% | viability, T/C (second compound 10 µM, first compound 0.00316 µM): 90% | viability, T/C (second compound 10 µM, first compound 0.01 µM): 96.2% | viability, T/C [30]: 95.1% | viability, T/C [31]: 95%

Nc1ncn(C2CC(O)C(CO)S2)c(=O)n1 (stereo unspecified) + Cc1cncc(-c2nc(NCCc3c[nH]c4ccccc34)c3ncn(C(C)C)c3n2)c1
IC50 [1]: 222 nM | IC50 [2]: 219 nM | IC50 [3]: 294 nM | IC50 [4]: 293 nM | IC50 [5]: 43.8 nM | viability, T/C (second compound 0.1 µM, first compound 0.000949 µM): 101% | viability, T/C (second compound 0.1 µM, first compound 0.003 µM): 110% | viability, T/C (second compound 0.1 µM, first compound 0.00949 µM): 80.4% | viability, T/C (second compound 0.1 µM, first compound 0.03 µM): 93.2% | viability, T/C (second compound 0.1 µM, first compound 0.0949 µM): 57.6% | viability, T/C (second compound 0.1 µM, first compound 0.3 µM): 46.8% | viability, T/C (second compound 0.316 µM, first compound 0.000949 µM): 86.7% | viability, T/C (second compound 0.316 µM, first compound 0.003 µM): 97.1% | viability, T/C (second compound 0.316 µM, first compound 0.00949 µM): 92.2% | viability, T/C (second compound 0.316 µM, first compound 0.03 µM): 84% | viability, T/C (second compound 0.316 µM, first compound 0.0949 µM): 59.2% | viability, T/C (second compound 0.316 µM, first compound 0.3 µM): 46.5% | viability, T/C (second compound 1 µM, first compound 0.000949 µM): 87.7% | viability, T/C (second compound 1 µM, first compound 0.003 µM): 95.7% | viability, T/C (second compound 1 µM, first compound 0.00949 µM): 99.5% | viability, T/C (second compound 1 µM, first compound 0.03 µM): 80.1% | viability, T/C (second compound 1 µM, first compound 0.0949 µM): 73% | viability, T/C (second compound 1 µM, first compound 0.3 µM): 49.3% | viability, T/C (second compound 3.16 µM, first compound 0.000949 µM): 102% | viability, T/C (second compound 3.16 µM, first compound 0.003 µM): 98.6% | viability, T/C (second compound 3.16 µM, first compound 0.00949 µM): 93.2% | viability, T/C (second compound 3.16 µM, first compound 0.03 µM): 94.5% | viability, T/C (second compound 3.16 µM, first compound 0.0949 µM): 58.7% | viability, T/C (second compound 3.16 µM, first compound 0.3 µM): 49.5% | viability, T/C (second compound 10 µM, first compound 0.000949 µM): 57% | viability, T/C (second compound 10 µM, first compound 0.003 µM): 51.4% | viability, T/C (second compound 10 µM, first compound 0.00949 µM): 55.5% | viability, T/C (second compound 10 µM, first compound 0.03 µM): 54.7% | viability, T/C (second compound 10 µM, first compound 0.0949 µM): 43.7% | viability, T/C (second compound 10 µM, first compound 0.3 µM): 37.7%
